Values joined by “and” are separate entries in the source; they are usually repeats but may differ in a detail not shown here. Equal values may be shown once. Read-outs that look alike come from different tables or passages of the source.
What was measured:
estrogen receptor (ER) = test system: estrogen receptor (ER); design: method as in PMID 15111773, PMID 16690721, PMID 21451508; conditions: fold higher; cited from earlier work
[1] = Steady-state plasma concentration of (Z)-endoxifen (UPLC-MS/MS) in tamoxifen-treated breast cancer patients; assay type: in vivo, human; conditions: tamoxifen 20 mg daily
From the text: (§1) Between May 2012 and June 2014, 293 patients were recruited for a study of CYP2D6 genotype association with plasma concentrations of tamoxifen and its metabolites. Details of the inclusion criteria, study protocol, genotyping and mass spectrometry (MS) methodology, and primary results were reported previously. Briefly, all patients were Polish Caucasians, unselected women with verified hormone receptor-positive breast cancer (median age at diagnosis: 55 years; range: 25–95 years) receiving the standard treatment of 20 mg of tamoxifen daily for at least 1 month to ensure the steady-state plasma concentration of tested compounds. The median time between the initiation of tamoxifen treatment and blood sample collection was 21.5 months. Six patients had plasma drug concentrations <10% of the mean tamoxifen level across all patients and were excluded from further analyses.
(§2) As previously described, whole blood samples were collected at study enrollment, and plasma was immediately separated and stored at −80 °C until ultraperformance liquid chromatography tandem MS (UPLC-MS/MS) analysis. For all samples, plasma concentrations of tamoxifen and its 14 key metabolites were measured, including the following: NDM-Tam, (Z)-endoxifen, (E)-endoxifen, 3-OH-NDM-Tam, 4′-OH-NDM-Tam, (Z)-4-OH-Tam, 3-OH-Tam, 4′-OH-Tam, (Z)-α-OH-Tam, (E)-α-OH-Tam, Tam-N-oxide, Tam-N-β-D-glucuronide (Tam-N-gluc), (E/Z)-4-OH-NDM-Tam-β-D-glucuronide ((E/Z)-4-OH-NDM-Tam-gluc), and (E)-4-OH-Tam-O-β-D-glucuronide ((E)-4-OH-Tam-O-gluc). All of the above compounds and deuterated internal standards (Tam-d5, NDM-Tam-d5, and (Z)-4-OH-Tam-d5) were from Toronto Research Chemicals (North York, ON, Canada). Details of the sample preparation method, MS/MS parameters, and linearity ranges of the metabolite standards are included in File S1.
Sample preparation was carried out as described by Dahmane et al., with slight modifications, including protein precipitation by acetonitrile. Briefly, 100 µl of plasma was mixed with 300 µl of ISs solution (3.3 ng/ml of Tam-d5, 3.3 ng/ml of NDM-Tam-d5 and 4.2 ng/ml of (Z)-4-OH-Tam-d5) in acetonitrile. After vortexing and centrifugation (10 min; 18,000× g), 350 µl of clear supernatant was evaporated under nitrogen in 55°C. Finally, samples were dissolved in 100 µl of 10 mM ammonium formate in 50% methanol.
For sample separation, an Acquity UPLC system equipped with Acquity BEH Shield RP18 column (100 × 2.1 mm, 1.7 µm particle size) (Waters, Milford, MA, USA) was used. The column was thermostatted at 70°C. The mobile phase A consisted of ultrapure water, and phase B consisted of 0.1% formic acid in acetonitrile. The flow rate was 0.6 ml/min and the total run time was 16 min per sample under nonlinear gradient condition as follows: 10% to 80% B for 12 min (concave curve), 80% B for 2 min, 95% B for 1 min and 10% B for 1 min.
Detection was performed on a triple quadrupole mass spectrometer Xevo TQ-MS (Waters) in the positive ion electrospray ionization mode, with general mass spectrometry (MS) parameters as follows: capillary voltage, 3 kV; desolvation temperature, 550°C; desolvation gas (nitrogen) flow, 1000 l/h; cone gas (nitrogen) flow, 100 l/h and collision gas (argon) flow, 0.15 ml/min. Waters QuanLynx software was used for chromatograms integration and quantitation.
All compounds were divided between two calibration sets, A and B (Table 1), based on characteristic ions and retention times. Each set consisted of six calibration samples (CAL1 to CAL6) prepared by spiking blank plasma sample by an appropriate amount of analyte. The calibration range was chosen based on others’ published data, expected steady-state plasma metabolite concentration and our previous measurements. Linear calibration curves were obtained by plotting response (obtained by dividing peak area of analyte by peak area of internal standard) against calibration point of known concentration. […]

[2] = Metabolic ratio (MR): (Z)-endoxifen plasma concentration divided by the sum of concentrations of tamoxifen and other measured metabolites; assay type: in vivo, human; conditions: for Metabolic Ratio of (Z)-endoxifen, Mean ± SD: tamoxifen 20 mg daily, plasma; for Metabolic ratio (MR): individual tamoxifen-treated breast cancer patient samples
From the text: We previously reported that the CYP2D6 genotype accounts for 51% of the variability in tamoxifen metabolism directed toward endoxifen production, expressed as the metabolic ratio (MR) of (Z)-endoxifen (the major isomer of endoxifen produced from tamoxifen) plasma concentration divided by the sum of concentrations of tamoxifen and other measured metabolites. The metabolic ratio is more useful than (Z)-endoxifen concentration alone, because it accounts for omitted drug doses or the concomitant use of CYP2D6 inhibitors. Using simple linear regression, we estimated that an MR value of 0.0146 corresponds to the predefined 6 ng mL^−1 (Z)-endoxifen efficacy threshold level. Here, we adopted a genome-wide association study (GWAS) approach to search for new DNA variants that could assist in the prediction of impaired tamoxifen metabolism in Polish patients with breast cancer treated with the standard daily dose (20 mg).
as §1, §2
Genomic DNA samples extracted from blood were genotyped for CYP2D6 alleles, according to the nomenclature described at https://www.parmvar.org/gene/CYP2D6 [10], as previously reported. Briefly, individual TaqMan allelic discrimination assays were performed for 11 SNPs, and 3 TaqMan Gene Copy Number Assays were conducted to assess gene deletion or duplication (Thermo Fisher, Waltham, MA, USA). Each CYP2D6 allele was assigned to one of four phenotypic categories, according to its associated enzyme function. PM (nonfunctional) alleles included CYP2D6*3, *4, *5, *6, and *7; IM (reduced-function) alleles were CYP2D6*9, *10, *17, and *41; NM (WT; fully functional) alleles included CYP2D6*1 and *2; and UM (increased-function) alleles were duplicates of NM variants, such as CYP2D6*1XN and *2XN. For the current study, patients were categorized into two groups of CYP2D6 functional activity: 1) Impaired metabolizers, who were presumed to have impaired metabolism of tamoxifen toward endoxifen (with CYP2D6 diplotypes PM/PM, IM/PM, IM/IM, NM/PM, and NM/IM), and 2) normal metabolizers, with predicted therapeutically effective tamoxifen metabolism (carrying CYP2D6 diplotypes NM/NM and NM/UM).

[3] = design: method as in PMID 26232141; conditions: Polish women with fully active CYP2D6 (NM/NM); tamoxifen 20 mg daily; cited from earlier work
[4] = design: method as in PMID 26232141; conditions: simple linear regression; corresponds to predefined 6 ng mL^−1 (Z)-endoxifen threshold; cited from earlier work
breast cancer = conditions: cited from earlier work

For 4-hydroxy-tamoxifen [4-OH-Tam], the “antiestrogenic potency relative to other tamoxifen metabolites and the parent drug” value (estrogen receptor (ER)) is listed as “up to 100 fold”.

For CC/C(=C(\c1ccc(O)cc1)c1ccc(OCCNC)cc1)c1ccccc1 [(Z)-endoxifen, (Z)-4-hydroxy-N-desmethyl-tamoxifen], the “(Z)-endoxifen steady-state plasma concentration, Mean ± SD” value ([1]; CYP2D6 genotype IM/IM (n=3)) was 3.05 ± 1.91 ng/mL, the “(Z)-endoxifen steady-state plasma concentration, Mean ± SD” value ([1]; CYP2D6 genotype IM/PM (n=12)) was 2.22 ± 0.87 ng/mL and the “(Z)-endoxifen steady-state plasma concentration, Mean ± SD” value ([1]; CYP2D6 genotype NM/IM (n=44)) was 5.60 ± 3.26 ng/mL. The “(Z)-endoxifen steady-state plasma concentration, Mean ± SD” value ([1]; CYP2D6 genotype NM/NM (n=90)) was 7.26 ± 3.18 ng/mL, the “(Z)-endoxifen steady-state plasma concentration, Mean ± SD” value ([1]; CYP2D6 genotype NM/PM (n=99)) was 4.85 ± 2.46 ng/mL and the “(Z)-endoxifen steady-state plasma concentration, Mean ± SD” value ([1]; CYP2D6 genotype NM/UM (n=18)) was 6.96 ± 3.75 ng/mL. For the same compound, the “(Z)-endoxifen steady-state plasma concentration, Mean ± SD” value ([1]; CYP2D6 genotype PM/PM (n=21)) was 1.79 ± 0.66 ng/mL, the “Metabolic Ratio of (Z)-endoxifen, Mean ± SD” value (“Metabolic Ratio … Mean ± SD” below) ([2]; CYP2D6 genotype IM/IM (n=3)) was 0.0063 ± 0.0022 and the “Metabolic Ratio … Mean ± SD” value ([2]; CYP2D6 genotype IM/PM (n=12)) was 0.0047 ± 0.0014. For the same compound, the “Metabolic Ratio … Mean ± SD” value ([2]; CYP2D6 genotype NM/IM (n=44)) was 0.0125 ± 0.0054, the “Metabolic Ratio … Mean ± SD” value ([2]; CYP2D6 genotype NM/NM (n=90)) was 0.0185 ± 0.0057 and the “Metabolic Ratio … Mean ± SD” value ([2]; CYP2D6 genotype NM/PM (n=99)) was 0.0108 ± 0.0043. For the same compound, the “Metabolic Ratio … Mean ± SD” value ([2]; CYP2D6 genotype NM/UM (n=18)) was 0.0201 ± 0.0076, the “Metabolic Ratio … Mean ± SD” value ([2]; CYP2D6 genotype PM/PM (n=21)) was 0.0037 ± 0.0013 and the “Metabolic ratio (MR)” value ([2]; CYP2D6 genotype IM/PM) was 0.00274 and 0.00459 and 0.0029 and 0.00363. For the same compound, the “Metabolic ratio (MR)” value ([2]; CYP2D6 genotype NM/IM) was 0.00647 and 0.0081 and 0.00839 and 0.01209 and 0.0056 and 0.01085 and 0.0096 and 0.00997 and 0.01604, the “Metabolic ratio (MR)” value ([2]; CYP2D6 genotype NM/NM) was 0.01773 and 0.01628 and 0.0192 and 0.02007 and 0.01314 and 0.01689 and 0.01957 and 0.01357 and 0.0089 and 0.01713 and 0.01204 and 0.01768 and 0.01853 and 0.01753 and 0.01866 and 0.01752 and 0.01504 and 0.00404 and 0.01279 and 0.01592 and 0.01076 and 0.01005 and 0.01645 and the “Metabolic ratio (MR)” value ([2]; CYP2D6 genotype NM/PM) was 0.01496 and 0.01155 and 0.00944 and 0.00815 and 0.01001 and 0.01495 and 0.00803 and 0.01657 and 0.01419 and 0.01098 and 0.0072 and 0.00801 and 0.01175 and 0.00523 and 0.00652 and 0.00522 and 0.00788 and 0.00603 and 0.00607 and 0.00605 and 0.01073. The “Metabolic ratio (MR)” value ([2]; CYP2D6 genotype NM/UM) was 0.013 and 0.01894 and 0.02933 and 0.01233, the “Metabolic ratio (MR)” value ([2]; CYP2D6 genotype PM/PM) was 0.00294 and 0.00405 and 0.0035 and 0.00163 and the “proportion of patients not achieving the beneficial threshold level of plasma (Z)-endoxifen” value [3] was “over 30%”. For the same compound, the “MR value corresponding to the (Z)-endoxifen efficacy threshold level” value [4] was 0.0146.

In the case of CC/C(=C(\c1ccc(O)cc1)c1ccc(OCCNC)cc1)c1ccccc1 [endoxifen, 4-hydroxy-N-desmethyl-tamoxifen], the “minimal threshold level of endoxifen to achieve the desired treatment efficacy” value (breast cancer; large retrospective study, lowest quintile) is given as > 5.97 ng/mL, the “lower breast cancer recurrence rate relative to patients with lower endoxifen concentrations” value (breast cancer; patients with endoxifen concentration >5.97 ng mL^−1) is given as 26% and the “endoxifen efficacy threshold level” value (breast cancer; ref 30) is given as 5.3 ng/mL. For the same compound, the “endoxifen efficacy threshold level” value (breast cancer; ref 32) was 3.36 ng/mL and the “antiestrogenic potency relative to other tamoxifen metabolites and the parent drug” value (estrogen receptor (ER)) was “up to 100 fold”.

Source: publication PMC6722498, “Non-CYP2D6 Variants Selected by a GWAS Improve the Prediction of Impaired Tamoxifen Metabolism in Patients with Breast Cancer” (Journal of Clinical Medicine, 2019)
